How the values were obtained:
Format in all cases: cell-based, human
[1] = test system: miR-200a in cervical cancer cells; assay: qRT-PCR of miR-200a; details: qPCR, 24 hours
Description: (§1) RNA from cervical cancer cells was isolated using Qiagen kit and quantified using NanoDrop instrument 2000 (Thermo Scientific, Waltham, MA, USA). To analyze the expression of miR-200a in control and Br-ORM treated cells, 100 ng total RNA was reverse transcribed into cDNA using specific primers designed for miRNA analysis (Applied Biosystems, Foster City, CA, USA). The expression of this miRNAs was determined by qRT-PCR using the Taqman PCR master mixture and specific primers designed for detection of mature miRNAs (Applied Biosystems). The expression of miRNA was normalized with the expression of endogenous control, RNU6B.
Modulations of microRNAs are involved in cervical cancer development, progression and metastasis. It is reported that expression of β-catenin is directly regulated by miR-200a. Br-ORM targets β-catenin signaling, therefore, to further understand the underlying mechanisms, the expression of miR-200a following the Br-ORM treatment was evaluated.
(§2) FIG. 16. Effect of Br-ORM on HPV oncoproteins and tumor suppressor miR-200 in cervical cancer cells. […] Increase expression of tumor suppressor miR200a in cervical cancer cells treated with BR-ORM for 24 hours in comparison to non-treated controls was determined through real time PCR (FIG. 16A(v)-(vii)). […]

[2] = test system: HPV16 E6 and E7 transcripts in CaSki cells; assay: qPCR of HPV E6 and HPV E7 transcripts, CaSki; details: 18 hours
Description: as §1
HPV infections are associated with a majority of cervical cancer cases. The effect of Br-ORM on the expression of HPV E6 and HPV E7 oncogenes in CaSki and SiHa cells was investigated. […] Br-ORM repressed both transcription and translation of E6 and E7 oncogene in cervical cancer cells.
as §2

CaSki cells = assay: Apoptosis analysis by Annexin V staining, CaSki; details: 10 μM, 24 hours
Description: The apoptosis inducing effect of Br-ORM on cervical cells was analyzed by Annexin V-FLUOS staining kit (Roche Diagnostic Corp. Indianapolis, IN, USA). The procedure was followed as described in the vendor's protocol. Briefly, 60% confluent cervical cancer cells (CaSki and SiHa) were treated with Br-ORM (10, 15, and 20 μM) and kept in a CO2 incubator at 37° C. for 24 hours. Control group cells were treated with DMSO as the vehicle. Cells were washed with PBS (1×) and kept in Annexin-V solution for 20 minutes. Images were captured in bright and green field by fluorescent microscope.
It was observed that Br-ORM exerts potent growth inhibitory effects, so the effect of Br-ORM on apoptosis induction was further examined. Cervical cancer cells were treated with Br-ORM (10 μM) for 24 hours and the apoptosis inducing effect of Br-ORM was analyzed by Annexin V staining and Western blot analysis for cleavage in PARP protein.

COc1ccc2c(c1)OC(C)(C)C(c1ccc(Br)cc1)C2c1ccc(OCCN2CCCC2)cc1 (stereo not drawn) [ORM-Br]
expression of miR-200a [1]: significant (P<0.05) increase
HPV16 E6 and E7 transcripts [2]: significant downregulation
apoptosis induction (Annexin V staining) (CaSki cells): induced apoptosis
